According to patent US20180325893A1, “SUBACUTE ADMINISTRATION OF NMDA MODULATORS ALONE OR IN COMBINATION” (Northwestern University, priority 2015, published 2018):
Entries after “also recorded” stand apart in the source; their conditions may differ. Peptide text beside a SMILES is read from it.

Legend:
Assay type in all cases: in vivo
[1] = system: male C57BL/6J mice; assay: Novel object recognition (NOR), acute drug treatment / acute ketamine-induced deficit (Example 1); details: for discrimination index (DI) / NOR deficit: Example 1, FIG. 1; for preference for novel versus familiar object (exploration time), retention trial: Example 1
Description: (§1) Three cohorts of male C57BL/6J mice (2½-3 month old, Jackson, Mass., USA), N=40, 45, and 48 were used in Examples 1, 2, 3 respectively. Mice were group housed (five/cage) in a controlled environment held at 21±2° C. and 50±15% relative humidity with a 14:10 h light-dark period (lights on: 05:00 am). All experiments were conducted during the light phase. Food and water were available ad libitum. The mice were habituated to the colony upon arrival for a week, during which time, they were not handled. All experiments were conducted in accordance with Institutional Animal Care and Use Committee of Northwestern University, Chicago.
(§2) Rapastinel was obtained from SAI Life Sciences (India). PCP was a generous gift from National Institute of Drug Abuse. Ketamine was purchased from Sigma Aldrich (St. Louis, Mo.). Lurasidone was provided by Sumitomo Dainippon Pharma Co., Ltd. (Osaka, Japan). Rapastinel, PCP, and ketamine were dissolved in 0.9% sterile saline (Sal). PCP and ketamine were administered intraperitoneally (ip), at a volume of 10 mL/kg body weight. Rapastinel was given intravenously (iv). The dose of rapastinel (1.0 mg/kg) was chosen because it produced optimal enhancement in learning in both young adult and aged rats and in a trace eye blink conditioning task in rabbits. […] The dose for lurasidone (0.1 mg/kg) was chosen based on prior NOR studies in C57BL/6J mice which determined the effective dose of lurasidone to restore NOR in subchronic PCP-treated mice.
(§3) For acute drug treatments, rapastinel (1.0 mg/kg, iv), lurasidone (0.1 mg/kg, i.p.) or ketamine (30 mg/kg, ip) were administered 30 min prior to the acquisition trial of the NOR task (described below) to the subchronic ketamine or subchronic PCP-treated animals. For subchronic drug treatments, 7-10 mice/cohort were randomly assigned to Sal, PCP, or ketamine. The Sal-treated mice received 0.9% NaCl; the drug treatment groups received either PCP (10 mg/kg; ip), or ketamine (30 mg/kg; ip) twice daily for 7 days. This was followed by a 7 day washout period during which time, mice were left undisturbed in the home cage until initiation of habituation (see below).
(§4) NOR testing in mice was slightly modified from Hashimoto et al (Hashimoto K.; Fujita Y.; Shimizu E.; Iyo M. European Journal of Pharmacology 2005, 519:114-7). […] Similar observations were made when large objects were used. […] It was observed that C57BL/6J mice explored less when the duration of trials were 3 or 5. […] The NOR apparatus consisted of an open box made of Plexiglas (52 cm L; 52 cm W; 31 cm H) with white walls and a solid floor. The box was positioned approximately 30 cm above the floor, centered on a table such that the overhead lights could not provide a spatial cue. One day after the 7 day washout from subchronic drug treatment or Sal, mice were habituated to the empty NOR arena, as a group, for one hour, on each of three days prior to the acquisition trial. During the acquisition trial, the mice were allowed to explore two identical objects (e.g. A1 and A2) for 10 min. This was followed by a 24-hour inter-trial interval, after which the mice were returned to the home cage. During the retention trial, the mice were allowed to explore the familiar object (A) from the acquisition trial and a novel object (e.g. B). The location of the novel object in the retention trial was randomly assigned for each mouse tested using a pseudorandom schedule. […] Also, to avoid bias or olfactory trails, objects were used in triplicates, i.e. that the same object that was used in the acquisition trial was not presented in retention trial. Behavior was recorded on video for blind scoring of object exploration. Object exploration was defined as an animal licking, sniffing, or touching the object with the forepaws while sniffing. […] The discrimination index (DI) [(time spent exploring the novel object—time spent exploring the familiar object)/total exploration time] was then calculated for retention trials. […]

[2] = system: male C57BL/6J mice; assay: NOR in subchronic ketamine-treated mice (Examples 2 and 3)
Description: as §1, §2, §3, §4

[3] = system: male C57BL/6J mice; assay: NOR in subchronic PCP-treated mice (Example 2); details: for preference for novel versus familiar object, retention trial: Example 2
Description: as §1, §2, §3
NOR testing in mice was slightly modified from Hashimoto et al (Hashimoto K.; Fujita Y.; Shimizu E.; Iyo M. European Journal of Pharmacology 2005, 519:114-7). […] Similar observations were made when large objects were used. […] It was observed that C57BL/6J mice explored less when the duration of trials were 3 or 5. […] The NOR apparatus consisted of an open box made of Plexiglas (52 cm L; 52 cm W; 31 cm H) with white walls and a solid floor. The box was positioned approximately 30 cm above the floor, centered on a table such that the overhead lights could not provide a spatial cue. One day after the 7 day washout from subchronic drug treatment or Sal, mice were habituated to the empty NOR arena, as a group, for one hour, on each of three days prior to the acquisition trial. During the acquisition trial, the mice were allowed to explore two identical objects (e.g. A1 and A2) for 10 min. This was followed by a 24-hour inter-trial interval, after which the mice were returned to the home cage. […] Behavior was recorded on video for blind scoring of object exploration. […] The discrimination index (DI) [(time spent exploring the novel object—time spent exploring the familiar object)/total exploration time] was then calculated for retention trials. […]

[4] = acute drug plus sal, rapastinel 1.0 mg/kg, ketamine 30 mg/kg
[5] = acute drug plus sal, 30 min prior to acquisition trial, rapastinel 1.0 mg/kg iv, ketamine 30 mg/kg ip

CNC1(c2ccccc2Cl)CCCCC1=O (stereo not drawn) [ketamine, Ketamine, reference compound]
discrimination index (DI) / NOR deficit [1, 4]: induced a significant NOR deficit; also recorded: significantly reduced
preference for novel versus familiar object (exploration time), retention trial [1, 5]: abolished
discrimination index (DI) ([2]; Example 2, FIG. 2, subchronic ketamine alone, compared to sal plus sal): significantly reduced
preference for novel versus familiar object, retention trial ([2]; Example 2, subchronic ketamine 30 mg/kg ip twice daily 7 days, 7 day washout): abolished
discrimination index (DI) ([2]; Example 3, FIG. 3, subchronic ketamine plus sal, compared to saline controls): significant reductions in the DI
preference for novel versus familiar object, retention trial ([2]; Example 3, subchronic ketamine alone): abolished

c1ccc(C2(N3CCCCC3)CCCCC2)cc1 [PCP, reference compound]
discrimination index (DI) ([3]; Example 2, FIG. 2, subchronic PCP alone, compared to sal plus sal): significantly reduced
preference for novel versus familiar object, retention trial ([3]; subchronic PCP 10 mg/kg ip twice daily 7 days, 7 day washout): abolished

CC(O)C(N)C(=O)N1CCCC1C(=O)N1CCCC1C(=O)NC(C(N)=O)C(C)O (stereo not drawn) [rapastinel, Rapastinel] (H-TPPT-NH2; configuration not given here)
discrimination index (DI) / NOR deficit [1, 4]: did not induce NOR deficit
discrimination index (DI) / NOR deficit ([1]; rapastinel 1.0 mg/kg plus acute ketamine 30 mg/kg): significantly prevented the acute ketamine-induced decrease in DI
discrimination index (DI) / NOR deficit ([1]; rapastinel 1.0 mg/kg plus acute ketamine 30 mg/kg, listed as Rap): significantly prevented the ket-induced NOR deficit
preference for novel versus familiar object (exploration time), retention trial [1, 5]: showed a clear preference for the novel compared to the familiar object
preference for novel versus familiar object (exploration time), retention trial ([1]; rapastinel 1.0 mg/kg prior to acute ketamine 30 mg/kg): showed clear preference for the novel compared to the familiar object
discrimination index (DI) / NOR deficit ([3]; Example 2, FIG. 2, acute rapastinel 1.0 mg/kg in subchronic PCP-treated mice): significantly increased
discrimination index (DI) / NOR deficit ([3]; Example 2, FIG. 2, acute rapastinel 1.0 mg/kg in subchronic PCP-treated mice, listed as rap): significantly reversed
preference for novel versus familiar object, retention trial ([3]; acute rapastinel 1.0 mg/kg in subchronic PCP-treated mice): explored the novel object significantly more compared to the familiar object
discrimination index (DI) / NOR deficit ([2]; Example 2, FIG. 2, acute rapastinel 1.0 mg/kg in subchronic ketamine-treated mice): significantly increased
discrimination index (DI) / NOR deficit ([2]; Example 2, FIG. 2, acute rapastinel 1.0 mg/kg in subchronic ketamine-treated mice, listed as rap): significantly reversed
preference for novel versus familiar object, retention trial ([2]; Example 2, acute rapastinel 1.0 mg/kg in subchronic ketamine-treated mice): explored the novel object significantly more compared to the familiar object
discrimination index (DI) / NOR deficit ([2]; Example 3, FIG. 3, subchronic ketamine-treated mice given sub-effective dose rapastinel 0.3 mg/kg and/or sub-effective dose lurasidone 0.1 mg/kg): neither drug above at these doses was effective; also recorded: significant reductions in the DI
preference for novel versus familiar object, retention trial ([2]; Example 3, subchronic ketamine-treated mice given sub-effective dose rapastinel 0.3 mg/kg and/or sub-effective dose lurasidone 0.1 mg/kg): abolished
